Measurements from ChEMBL document CHEMBL3351396, “Synthesis of the novel elemonic acid derivatives as Pin1 inhibitors” (Bioorg Med Chem Lett, 2014).

target: Peptidyl-prolyl cis-trans isomerase NIMA-interacting 1 (Homo sapiens, UniProt Q13526); experiment: Inhibition of Pin1 (unknown origin) using Suc-Ala-Glu-Pro-Phe-4-nitroanilide as substrate after 30 mins by protease-coupled assay
Sequence (Q13526 whole entry): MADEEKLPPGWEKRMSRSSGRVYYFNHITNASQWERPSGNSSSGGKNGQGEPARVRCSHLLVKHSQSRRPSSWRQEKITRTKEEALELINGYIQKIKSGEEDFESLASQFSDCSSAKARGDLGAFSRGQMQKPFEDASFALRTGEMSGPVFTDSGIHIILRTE

Row | SMILES | IC50 [µM]
1 | CC1(C)C(=O)CC[C@]2(C)C3=C(C(=O)C[C@@H]12)[C@@]1(C)CC[C@@H]([C@H](CCC(=O)O)C(=O)OCc2ccccc2)[C@]1(C)CC3 | > 40
2 | CC1(C)C(=O)CC[C@]2(C)C3=C(CC[C@@H]12)[C@@]1(C)CC[C@@H]([C@H](CCC(=O)N2CCNCC2)C(=O)OCc2ccccc2)[C@]1(C)CC3 | > 40
3 | CN1CCN(C(=O)CC[C@H](C(=O)OCc2ccccc2)[C@@H]2CC[C@]3(C)C4=C(CC[C@@]23C)[C@@]2(C)CCC(=O)C(C)(C)[C@@H]2CC4)CC1 | 31.5
4 | CN(C)C(=O)CC[C@H](C(=O)OCc1ccccc1)[C@@H]1CC[C@]2(C)C3=C(CC[C@@]12C)[C@@]1(C)CCC(=O)C(C)(C)[C@@H]1CC3 | 0.83
5 | COC(=O)CC[C@H](C(=O)OCc1ccccc1)[C@@H]1CC[C@]2(C)C3=C(CC[C@@]12C)[C@@]1(C)CCC(=O)C(C)(C)[C@@H]1CC3 | > 40
6 | CC(C)=CCC[C@H](C(=O)OCc1ccccc1)[C@@H]1CC[C@]2(C)C3=C(CC[C@@]12C)[C@@]1(C)C/C(=C\C(=O)N2CCNCC2)C(=O)C(C)(C)[C@@H]1CC3 | > 40
7 | CC(C)=CCC[C@H](C(=O)OCc1ccccc1)[C@@H]1CC[C@]2(C)C3=C(CC[C@@]12C)[C@@]1(C)C/C(=C\C(=O)N2CCN(C)CC2)C(=O)C(C)(C)[C@@H]1CC3 | 32.3
8 | CC1(C)C(=O)CC[C@]2(C)C3=C(CC[C@@H]12)[C@@]1(C)CC[C@@H]([C@H](CCC(N)=O)C(=O)OCc2ccccc2)[C@]1(C)CC3 | > 40
9 | CC(C)=CCC[C@H](C(=O)O)[C@@H]1CC[C@]2(C)C3=C(CC[C@@]12C)[C@@]1(C)CCC(=O)C(C)(C)[C@@H]1CC3 | 13.2

Second part, the molecule after the results:

Row | IC50 [µM] | SMILES
10 | 1.47 | CC1(C)C(=O)CC[C@]2(C)C3=C(CC[C@@H]12)[C@@]1(C)CC[C@@H]([C@H](CCC(=O)O)C(=O)OCc2ccccc2)[C@]1(C)CC3=O
11 | 3.68 | CC1(C)C(=O)CC[C@]2(C)C3=C(CC[C@@H]12)[C@@]1(C)CC[C@@H]([C@H](CCC(=O)O)C(=O)OCc2ccccc2)[C@]1(C)CC3
12 | 0.57 | CC(C)=CCC[C@H](C(=O)OCc1ccccc1)[C@@H]1CC[C@]2(C)C3=C(CC[C@@]12C)[C@@]1(C)C/C(=C\C(=O)O)C(=O)C(C)(C)[C@@H]1CC3
13 | 14.1 | CC1(C)C(=O)CC[C@]2(C)C3=C(CC[C@@H]12)[C@@]1(C)CC[C@@H]([C@H](CCC#N)C(=O)OCc2ccccc2)[C@]1(C)CC3
14 | 2.6 | CC1(C)C(=O)CC[C@]2(C)C3=C(CC[C@@H]12)[C@@]1(C)CC[C@@H]([C@H](CCc2nnn[nH]2)C(=O)OCc2ccccc2)[C@]1(C)CC3
